For experiment [1], the target named is T1, human notum pectinacetyltransferase (Homo sapiens, UniProt Q6P988).
T1 construct: made in house; unpurified conditioned medium used
T1 sequence (Q6P988 20-496): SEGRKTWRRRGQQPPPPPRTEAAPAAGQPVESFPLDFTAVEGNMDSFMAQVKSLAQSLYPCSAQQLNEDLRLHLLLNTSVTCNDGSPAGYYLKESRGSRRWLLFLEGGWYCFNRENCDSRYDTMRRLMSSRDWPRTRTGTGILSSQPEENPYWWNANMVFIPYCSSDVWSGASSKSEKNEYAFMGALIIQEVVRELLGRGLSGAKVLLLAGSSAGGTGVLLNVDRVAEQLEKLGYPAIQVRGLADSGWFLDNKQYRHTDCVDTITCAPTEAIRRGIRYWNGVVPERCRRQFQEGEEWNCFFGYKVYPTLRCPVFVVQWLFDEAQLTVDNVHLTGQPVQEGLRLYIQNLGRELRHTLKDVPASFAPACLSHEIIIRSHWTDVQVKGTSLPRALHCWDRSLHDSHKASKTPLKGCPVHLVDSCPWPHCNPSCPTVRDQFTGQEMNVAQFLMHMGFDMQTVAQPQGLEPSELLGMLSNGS
Kind of experiment: Binding assay (OPTS esterase substrate, fluorimetric). The format is biochemical. The procedure:
Plasmid containing human notum pectinacetyltransferase in pcDNA3.1(+) vector was transfected into HEK (293 cells and clones were selecting by growing in presence of 400 ug/mL of G418. Condition media from these cells was used for the assay.

In experiment [2] the target is T1, human notum pectinacetyltransferase. Nature of the experiment: Reporter assay (CellSensor LEF/TCF-bla FreeStyle 293F cells, Wnt3a and notum conditioned media). Type of experiment: cell-based. To be noted: class symbols. (In a reporter assay the amount or activity of a reporter protein is the signal.)
The mark [3] stands for this setting: given as numeric bound above the legend's highest class.

SMILES strings stand for the structures.

Broadly, the IC50 is the concentration needed to halve the response being measured. Read a low IC50 as higher potency. A word on the EC50: it is the concentration needed to bring the measured effect to its halfway point. A high value points to a less potent agent.

Compound `O=C(O)c1cc2c(s1)-c1ccccc1S(=O)(=O)CC2` showed an IC50 in experiment [1] (setting [3]) greater than 2000 nM. This compound also gave a half-maximal effective concentration (EC50) in experiment [2] of less than 1000 nM.

Regarding `O=C(O)c1cc2c(s1)-c1ccccc1SCC2`, the IC50 in experiment [1] (setting [3]) is greater than 2000 nM. The same compound displayed a half-maximal effective concentration (EC50) in experiment [2] of less than 100 nM.

Take `COC(C)(C)CNC(=O)c1cc2c(s1)-c1ccc(Cl)c(F)c1OC2`: in experiment [1] (setting [3]), the IC50 is greater than 2000 nM. The compound also registered a concentration giving a half-maximal response (EC50) in experiment [2] of less than 500 nM.

Take `O=C(NCCN1CCOCC1)c1cc2c(s1)-c1ccc(Cl)c(F)c1OC2`: in experiment [1] (setting [3]), the IC50 is greater than 2000 nM. The compound also came in with a concentration for a half-maximal effect (EC50) in experiment [2] of less than 500 nM.

On to `N#Cc1ccc2c(c1)CCc1cc(C(=O)O)sc1-2`, for which the concentration for half-maximal inhibition (IC50) in experiment [1] (setting [3]) is greater than 2000 nM. Besides, the EC50 in experiment [2] was less than 1000 nM.

In turn, `COCCNC(=O)c1cc2c(s1)-c1cc(F)ccc1OCC2` yielded an IC50 in experiment [1] (setting [3]) greater than 2000 nM. The concentration giving a half-maximal response (EC50) in experiment [2] was less than 500 nM.

In turn, `COCCNC(=O)c1cc2c(s1)-c1ccccc1CCC2` came in with an IC50 in experiment [1] (setting [3]) greater than 2000 nM. The concentration giving a half-maximal response (EC50) in experiment [2] was less than 500 nM.

Regarding `O=C(O)C1CN(C(=O)c2cc3c(s2)-c2ccc(Cl)c(Cl)c2OC3)CC1c1ccccc1F` (racemic), the IC50 in experiment [1] (class symbols) is less than 50 nM. In experiment [2], the EC50 was less than 50 nM.

`Cc1cc(C)c2c(c1)-c1sc(C(=O)NCC(=O)O)cc1CC2` [2-(6,8-dimethyl-4,5-dihydronaphtho[1,2-b]thiophene-2-carboxamido)acetic acid] displayed an IC50 in experiment [1] (class symbols) of less than 1000 nM. This compound also returned an EC50 in experiment [2] of less than 100 nM.

In experiment [1] (class symbols), `Nc1c(C(=O)O)sc2c1CSc1ccccc1-2` [3-amino-4H-thieno[3,2-c]thiochromene-2-carboxylic acid] registered a concentration for half-maximal inhibition (IC50) of less than 1000 nM. This compound returned an EC50 in experiment [2] of less than 50 nM.

Turning to `NC(=O)c1cc2c(s1)-c1ccccc1OC2` [4H-thieno[3,2-c]chromene-2-carboxamide], the half-inhibitory concentration (IC50) in experiment [1] (class symbols) was less than 50 nM. In experiment [2], this compound came in with a half-maximal effective concentration (EC50) of less than 50 nM.

`O=C(O)c1cc2c(s1)-c1cc(F)cc(F)c1S(=O)(=O)C2` [6,8-difluoro-4H-thieno[3,2-c]thiochromene-2-carboxylic acid 5,5-dioxide] displayed an IC50 in experiment [1] (class symbols) of less than 1000 nM. In addition, the EC50 in experiment [2] is less than 500 nM.

For the compound `O=C(O)c1cc2c(s1)-c1cc(F)cc(F)c1[S+]([O-])C2` (centres unmarked) [6,8-difluoro-4H-thieno[3,2-c]thiochromene-2-carboxylic acid 5-oxide], in experiment [1] (setting [3]), the half-maximal inhibitory concentration (IC50) was greater than 2000 nM. Also, the EC50 in experiment [2] was less than 500 nM.

In experiment [1] (class symbols), `Cc1cc(C)c2c(c1)-c1sc(C(N)=O)cc1CC2` [6,8-dimethyl-4,5-dihydronaphtho[1,2-b]thiophene-2-carboxamide] returned an IC50 of less than 1000 nM. Besides, in experiment [2], the half-maximal effective concentration (EC50) was less than 50 nM.

Consider `NC(=O)c1cc2c(s1)-c1c(F)ccc(F)c1SC2` [6,9-difluoro-4H-thieno[3,2-c]thiochromene-2-carboxamide], for which the IC50 in experiment [1] (class symbols) is less than 50 nM. In experiment [2], the EC50 was less than 50 nM.

As for `O=C(O)c1cc2c(s1)-c1cccc(F)c1OC2` [6-fluoro-4H-thieno[3,2-c]chromene-2-carboxylic acid], the concentration for half-maximal inhibition (IC50) in experiment [1] (class symbols) was less than 1000 nM. In experiment [2], this compound displayed an EC50 of less than 50 nM.

In the case of `NC(=O)c1cc2c(s1)-c1c(F)cc(F)cc1OC2` [7,9-difluoro-4H-thieno[3,2-c]chromene-2-carboxamide], the IC50 in experiment [1] (class symbols) is less than 50 nM. This compound had an EC50 in experiment [2] of less than 50 nM.

As to `COc1ccc2c(c1)CCc1cc(C(=O)O)sc1-2` [7-methoxy-4,5-dihydronaphtho[1,2-b]thiophene-2-carboxylic acid], the IC50 in experiment [1] (class symbols) was less than 2000 nM. The compound also showed an EC50 in experiment [2] of less than 50 nM.

Turning to `NCCNC(=O)c1cc2c(s1)-c1ccccc1CC2` [N-(2-aminoethyl)-4,5-dihydronaphtho[1,2-b]thiophene-2-carboxamide], the half-inhibitory concentration (IC50) in experiment [1] (class symbols) was less than 2000 nM. Moreover, the EC50 in experiment [2] is less than 500 nM.

On to `O=C(NCCO)c1cc2c(s1)-c1ccccc1CC2` [N-(2-hydroxyethyl)-4,5-dihydronaphtho[1,2-b]thiophene-2-carboxamide], for which the half-maximal inhibitory concentration (IC50) in experiment [1] (class symbols) was less than 1000 nM. This compound came in with a concentration giving a half-maximal response (EC50) in experiment [2] of less than 50 nM.

`CCOC(=O)c1cc2c(s1)-c1ccc(C)c(C#N)c1CC2` [ethyl 6-cyano-7-methyl-4,5-dihydronaphtho[1,2-b]thiophene-2-carboxylate]: the IC50 in experiment [1] (class symbols) was less than 50 nM. The same compound displayed an EC50 in experiment [2] of less than 50 nM.

As to `CCOC(=O)c1cc2c(s1)-c1ccc(OC)cc1CC2` [ethyl 7-methoxy-4,5-dihydronaphtho[1,2-b]thiophene-2-carboxylate], the IC50 in experiment [1] (setting [3]) is greater than 2000 nM. The compound also showed an EC50 in experiment [2] of less than 500 nM.

(Values after patent US9624238B2, “4H-thieno[3,2-C]chromene-based inhibitors of Notum Pectinacetylesterase and methods of their use” (Lexicon Pharmaceuticals, Inc., priority 2011, dated 2017).)
